For assay [1], the system named is Mouse monocyte/macrophage cell line, RAW 264.7. In words: Cholesterol efflux assay (3H-cholesterol, macrophage cell line). In kind it is cell-based. The conditions noted are these: RAW 264.7, 4 hrs incubation, 0.1% human serum albumin; for 4 h Cholesterol Efflux Emax: ABCA1-mediated efflux.
In another assay the target is human GLP-1 receptor (Homo sapiens, UniProt P43220). In words: Functional GLP-1 receptor assay, in vitro potency (CRE luciferase; whole cells). The format is cell-based.
Setting [2] is: BHK cells expressing human GLP-1 receptor, 0% HSA, read-out: GLP1R CRE luc 0% HSA EC50 Mean Value.
Setting [3] is: GLP1R CRE luc 1% HSA EC50 Mean Value, BHK cells expressing human GLP-1 receptor, 1% HSA.

Each structure is given as a SMILES string. Like-named read-outs stand apart in the source and are kept apart here. Where a SMILES comes first, the peptide text is derived from it. [ ]: non-standard residue; d: D form. Aib = CC(C)(N)C(=O)O

human GLP-1 receptor, sequence (P43220 24-463): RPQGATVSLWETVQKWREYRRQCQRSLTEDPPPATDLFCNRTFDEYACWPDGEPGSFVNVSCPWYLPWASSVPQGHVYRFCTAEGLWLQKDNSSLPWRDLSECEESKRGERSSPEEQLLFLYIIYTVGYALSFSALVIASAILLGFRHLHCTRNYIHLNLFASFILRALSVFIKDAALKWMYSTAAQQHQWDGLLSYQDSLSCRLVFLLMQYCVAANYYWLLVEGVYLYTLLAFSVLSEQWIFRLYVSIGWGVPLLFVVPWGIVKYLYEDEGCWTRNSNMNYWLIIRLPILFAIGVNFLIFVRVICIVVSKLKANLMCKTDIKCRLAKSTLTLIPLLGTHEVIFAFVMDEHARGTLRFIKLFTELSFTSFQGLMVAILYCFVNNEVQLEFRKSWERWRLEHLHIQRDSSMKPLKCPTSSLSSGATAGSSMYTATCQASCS

Usually EC50 stands for the concentration needed to bring the measured effect to its halfway point. With `CC[C@H](C)[C@H](NC(=O)[C@H](Cc1ccccc1)NC(=O)[C@H](CCC(=O)O)NC(=O)[C@H](CCCCN)NC(=O)[C@@H](NC(=O)[C@H](C)NC(=O)[C@H](CCC(=O)O)NC(=O)CNC(=O)[C@H](CCC(=O)O)NC(=O)[C@H](CC(C)C)NC(=O)[C@H](Cc1ccc(O)cc1)NC(=O)[C@H](CO)NC(=O)[C@H](CO)NC(=O)[C@@H](NC(=O)[C@H](CC(=O)O)NC(=O)[C@H](CO)NC(=O)[C@@H](NC(=O)[C@H](Cc1ccccc1)NC(=O)[C@@H](NC(=O)CNC(=O)[C@H](CCC(=O)O)NC(=O)C(C)(C)NC(=O)[C@@H](N)Cc1c[nH]cn1)[C@@H](C)O)[C@@H](C)O)C(C)C)C(C)C)C(=O)N[C@@H](C)C(=O)N[C@@H](Cc1c[nH]c2ccccc12)C(=O)N[C@@H](CC(C)C)C(=O)N[C@H](C(=O)NCC(=O)NC(C)(C)C(=O)N[C@@H](CCCCN)C(=O)N[C@@H](CCC(=O)O)C(=O)N[C@@H](Cc1ccccc1)C(=O)N[C@@H](CC(C)C)C(N)=O)C(C)C` [Compound 10] (H-H[Aib]EGTFTSDVSSYLEGEAVKEFIAWLVG[Aib]KEFL-NH2), the “4 h Cholesterol Efflux Emax” value in assay [1] was found to be 79%. Moreover, the EC50 stood at 0.01 nM at human GLP-1 receptor (setting [2]) and 0.004 nM on human GLP-1 receptor (setting [3]).
For `CC[C@H](C)[C@H](NC(=O)[C@H](Cc1ccccc1)NC(=O)[C@H](CCC(=O)O)NC(=O)[C@H](CCCCN)NC(=O)[C@@H](NC(=O)[C@H](C)NC(=O)[C@H](CCC(=O)O)NC(=O)CNC(=O)[C@H](CCC(=O)O)NC(=O)[C@H](CC(C)C)NC(=O)[C@H](Cc1ccc(O)cc1)NC(=O)[C@H](CO)NC(=O)[C@H](CO)NC(=O)[C@@H](NC(=O)[C@H](CC(=O)O)NC(=O)[C@H](CO)NC(=O)[C@@H](NC(=O)[C@H](CC(C)C)NC(=O)[C@@H](NC(=O)CNC(=O)[C@H](CC(=O)O)NC(=O)[C@H](C)NC(=O)[C@@H](N)Cc1c[nH]cn1)[C@@H](C)O)[C@@H](C)O)[C@@H](C)CC)C(C)C)C(=O)N[C@@H](C)C(=O)N[C@@H](Cc1c[nH]c2ccccc12)C(=O)N[C@@H](CC(C)C)C(=O)N[C@H](C(=O)N[C@@H](CCC(=O)O)C(=O)N[C@@H](CCCCN)C(=O)NC(C)(C)C(=O)N[C@@H](CCCCN)C(=O)N[C@@H](CCC(=O)O)C(=O)N[C@@H](Cc1ccccc1)C(=O)N[C@@H](CC(C)C)C(N)=O)C(C)C` [Compound 14, [Asp9,Leu12,Ile16,Glu23,Val25,Glu34,Lys35,Aib36,Lys37]-GLP-1-(7-37)-peptidyl-Glu-Phe-Leu amide] (H-HADGTLTSDISSYLEGEAVKEFIAWLVEK[Aib]KEFL-NH2; N-terminus assumed), the EC50 in assay [1] (read-out: 4 h Cholesterol Efflux EC50, ABCA1-mediated efflux (CPT-cAMP induced minus non-induced)) stood at 300 nM; on human GLP-1 receptor (GLP1R CRE luc 1% HSA EC50 Mean Value) it was 0.062 nM.
Take `CC[C@H](C)[C@H](NC(=O)[C@H](Cc1ccccc1)NC(=O)[C@H](CCC(=O)O)NC(=O)[C@H](CCCCN)NC(=O)[C@@H](NC(=O)[C@H](C)NC(=O)[C@H](CCC(=O)O)NC(=O)CNC(=O)[C@H](CCC(=O)O)NC(=O)[C@H](CC(C)C)NC(=O)[C@H](Cc1ccc(O)cc1)NC(=O)[C@H](CO)NC(=O)[C@H](CO)NC(=O)[C@@H](NC(=O)[C@H](CC(=O)O)NC(=O)[C@H](CO)NC(=O)[C@@H](NC(=O)[C@H](Cc1ccccc1)NC(=O)[C@@H](NC(=O)CNC(=O)[C@H](CCC(=O)O)NC(=O)C(C)(C)NC(=O)[C@@H](N)Cc1c[nH]cn1)[C@@H](C)O)[C@@H](C)O)C(C)C)C(C)C)C(=O)N[C@@H](C)C(=O)N[C@@H](Cc1c[nH]cn1)C(=O)N[C@@H](CC(C)C)C(=O)N[C@H](C(=O)N[C@@H](CCC(=O)O)C(=O)N[C@@H](CCCCN)C(=O)NC(C)(C)C(=O)N[C@@H](CCCCN)C(=O)N[C@@H](CCC(=O)O)C(=O)N[C@@H](Cc1ccccc1)C(=O)N[C@@H](CC(C)C)C(N)=O)C(C)C` [Compound 17, [Aib8,Glu23,Val25,His31,Glu34,Lys35,Aib36,Lys37]-GLP-1-(7-37)-peptidyl-Glu-Phe-Leu amide] (H-H[Aib]EGTFTSDVSSYLEGEAVKEFIAHLVEK[Aib]KEFL-NH2): the “4 h Cholesterol Efflux Emax” value in assay [1] is 102%. At human GLP-1 receptor (setting [3]), this compound had an EC50 of 0.02 nM.
On to `CC(C)C[C@H](NC(=O)[C@H](Cc1ccccc1)NC(=O)[C@H](CCC(=O)O)NC(=O)[C@H](CCCCN)NC(=O)C(C)(C)NC(=O)[C@H](CCCCN)NC(=O)[C@H](CCC(=O)O)NC(=O)[C@H](CC(C)C)NC(=O)[C@H](CC(C)C)NC(=O)[C@H](Cc1c[nH]c2ccccc12)NC(=O)[C@H](CCC(N)=O)NC(=O)[C@@H](NC(=O)[C@H](Cc1ccccc1)NC(=O)[C@H](CCC(=O)O)NC(=O)[C@H](CCCNC(=N)N)NC(=O)[C@H](C)NC(=O)[C@H](C)NC(=O)[C@H](CCCCN)NC(=O)CNC(=O)[C@H](CC(=O)O)NC(=O)[C@H](CC(C)C)NC(=O)[C@H](Cc1ccc(O)cc1)NC(=O)[C@H](CCCCN)NC(=O)[C@H](CO)NC(=O)[C@H](Cc1ccc(O)cc1)NC(=O)[C@H](CC(=O)O)NC(=O)[C@H](CO)NC(=O)[C@@H](NC(=O)[C@H](Cc1ccccc1)NC(=O)[C@@H](NC(=O)CNC(=O)[C@H](CCC(N)=O)NC(=O)C(C)(C)NC(=O)[C@@H](N)Cc1c[nH]cn1)[C@@H](C)O)[C@@H](C)O)C(C)C)C(N)=O` [Compound 24] (H-H[Aib]QGTFTSDYSKYLDGKAAREFVQWLLEK[Aib]KEFL-NH2), for which the “4 h Cholesterol Efflux Emax” value in assay [1] amounted to 82%. For the same compound, the EC50 on human GLP-1 receptor (setting [2]) was determined as 1.63 nM; at human GLP-1 receptor (setting [3]), 0.908 nM.
As for `CC(C)C[C@H](NC(=O)[C@H](Cc1ccccc1)NC(=O)[C@H](CCC(=O)O)NC(=O)[C@H](CCCCN)NC(=O)C(C)(C)NC(=O)[C@H](CCCCN)NC(=O)[C@H](CCC(=O)O)NC(=O)[C@H](CC(C)C)NC(=O)[C@H](CC(C)C)NC(=O)[C@H](Cc1c[nH]c2ccccc12)NC(=O)[C@H](CCC(N)=O)NC(=O)[C@@H](NC(=O)[C@H](Cc1ccccc1)NC(=O)[C@H](CCC(=O)O)NC(=O)[C@H](CCCNC(=N)N)NC(=O)[C@H](C)NC(=O)[C@H](CCCNC(=N)N)NC(=O)[C@H](CCCCN)NC(=O)CNC(=O)[C@H](CC(=O)O)NC(=O)[C@H](CC(C)C)NC(=O)[C@H](Cc1ccc(O)cc1)NC(=O)[C@H](CCCCN)NC(=O)[C@H](CO)NC(=O)[C@H](Cc1ccc(O)cc1)NC(=O)[C@H](CC(=O)O)NC(=O)[C@H](CO)NC(=O)[C@@H](NC(=O)[C@H](Cc1ccccc1)NC(=O)[C@@H](NC(=O)CNC(=O)[C@H](CCC(N)=O)NC(=O)C(C)(C)NC(=O)[C@@H](N)Cc1c[nH]cn1)[C@@H](C)O)[C@@H](C)O)C(C)C)C(N)=O` [Compound 25] (H-H[Aib]QGTFTSDYSKYLDGKRAREFVQWLLEK[Aib]KEFL-NH2), the “4 h Cholesterol Efflux Emax” value in assay [1] is 68%. Also, the results for the EC50 on human GLP-1 receptor (setting [2]) and at human GLP-1 receptor (setting [3]) were 0.591 nM and 0.297 nM, respectively.
